Reference: article PMC12232896 (Angewandte Chemie (International Ed. in English), 2025)
pIC50: −log10 of the molar value.

Tests used:
P. berghei = system: P. berghei; parameters: method as in earlier work; conditions: 4 × 30 mg/kg; cited from earlier work
PvPI4Kβ = PvPI4Kβ (Plasmodium vivax, UniProt A5KB26); parameters: method as in PMID 33590753, PMID 28446690, PMID 30249687; conditions: same assay; cited from earlier work
Pf3D7 strain = conditions: cited from earlier work
HsMAP4K4 = target: T1, HsMAP4K4 (Homo sapiens, UniProt O95819); assay: HsMAP4K4 ADP-Glo kinase assay; format: biochemical; conditions: reference compound, 10 µM ATP
T1 construct: purchased Reaction Biology

HsMINK1 = target: T2, HsMINK1 (Homo sapiens, UniProt Q8N4C8); assay: HsMINK1 ADP-Glo kinase assay; format: biochemical; conditions: reference compound, 10 µM ATP
T2 construct: purchased Reaction Biology
T2 sequence (Q8N4C8 whole entry): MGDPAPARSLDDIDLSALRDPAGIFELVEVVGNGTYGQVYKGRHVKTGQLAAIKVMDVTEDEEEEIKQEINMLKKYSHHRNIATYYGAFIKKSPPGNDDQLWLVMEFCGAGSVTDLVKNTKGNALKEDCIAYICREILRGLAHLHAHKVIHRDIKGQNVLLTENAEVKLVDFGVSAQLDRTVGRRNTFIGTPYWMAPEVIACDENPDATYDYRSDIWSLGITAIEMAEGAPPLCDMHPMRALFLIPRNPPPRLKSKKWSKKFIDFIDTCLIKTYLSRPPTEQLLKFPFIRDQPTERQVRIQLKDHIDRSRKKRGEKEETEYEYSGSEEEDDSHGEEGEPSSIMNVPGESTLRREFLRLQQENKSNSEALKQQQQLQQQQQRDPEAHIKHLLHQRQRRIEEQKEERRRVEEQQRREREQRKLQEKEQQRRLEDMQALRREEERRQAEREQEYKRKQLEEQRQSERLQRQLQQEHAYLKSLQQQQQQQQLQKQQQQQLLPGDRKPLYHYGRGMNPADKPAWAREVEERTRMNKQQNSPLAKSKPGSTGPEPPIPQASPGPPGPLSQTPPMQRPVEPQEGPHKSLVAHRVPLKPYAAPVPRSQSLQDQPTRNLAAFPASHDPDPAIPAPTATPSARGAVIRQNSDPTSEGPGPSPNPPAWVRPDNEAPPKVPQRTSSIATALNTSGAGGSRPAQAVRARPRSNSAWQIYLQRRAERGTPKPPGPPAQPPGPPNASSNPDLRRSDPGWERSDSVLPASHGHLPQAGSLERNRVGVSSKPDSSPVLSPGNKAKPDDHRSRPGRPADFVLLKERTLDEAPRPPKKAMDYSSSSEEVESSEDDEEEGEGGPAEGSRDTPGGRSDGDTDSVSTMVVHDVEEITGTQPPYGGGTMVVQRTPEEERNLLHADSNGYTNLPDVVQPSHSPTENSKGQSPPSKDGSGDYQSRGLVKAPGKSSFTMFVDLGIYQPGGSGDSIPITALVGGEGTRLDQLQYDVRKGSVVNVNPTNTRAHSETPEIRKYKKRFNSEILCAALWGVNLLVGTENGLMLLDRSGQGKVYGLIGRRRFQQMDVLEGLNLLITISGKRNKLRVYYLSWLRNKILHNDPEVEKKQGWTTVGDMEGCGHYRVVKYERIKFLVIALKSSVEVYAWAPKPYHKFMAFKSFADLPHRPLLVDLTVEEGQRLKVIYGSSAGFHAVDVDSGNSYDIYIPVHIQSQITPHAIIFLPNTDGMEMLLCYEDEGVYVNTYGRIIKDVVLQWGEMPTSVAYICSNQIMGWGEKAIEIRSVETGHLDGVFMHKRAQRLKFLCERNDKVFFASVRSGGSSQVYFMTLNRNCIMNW

Sequence of PvPI4Kβ (A5KB26 entry or part of it): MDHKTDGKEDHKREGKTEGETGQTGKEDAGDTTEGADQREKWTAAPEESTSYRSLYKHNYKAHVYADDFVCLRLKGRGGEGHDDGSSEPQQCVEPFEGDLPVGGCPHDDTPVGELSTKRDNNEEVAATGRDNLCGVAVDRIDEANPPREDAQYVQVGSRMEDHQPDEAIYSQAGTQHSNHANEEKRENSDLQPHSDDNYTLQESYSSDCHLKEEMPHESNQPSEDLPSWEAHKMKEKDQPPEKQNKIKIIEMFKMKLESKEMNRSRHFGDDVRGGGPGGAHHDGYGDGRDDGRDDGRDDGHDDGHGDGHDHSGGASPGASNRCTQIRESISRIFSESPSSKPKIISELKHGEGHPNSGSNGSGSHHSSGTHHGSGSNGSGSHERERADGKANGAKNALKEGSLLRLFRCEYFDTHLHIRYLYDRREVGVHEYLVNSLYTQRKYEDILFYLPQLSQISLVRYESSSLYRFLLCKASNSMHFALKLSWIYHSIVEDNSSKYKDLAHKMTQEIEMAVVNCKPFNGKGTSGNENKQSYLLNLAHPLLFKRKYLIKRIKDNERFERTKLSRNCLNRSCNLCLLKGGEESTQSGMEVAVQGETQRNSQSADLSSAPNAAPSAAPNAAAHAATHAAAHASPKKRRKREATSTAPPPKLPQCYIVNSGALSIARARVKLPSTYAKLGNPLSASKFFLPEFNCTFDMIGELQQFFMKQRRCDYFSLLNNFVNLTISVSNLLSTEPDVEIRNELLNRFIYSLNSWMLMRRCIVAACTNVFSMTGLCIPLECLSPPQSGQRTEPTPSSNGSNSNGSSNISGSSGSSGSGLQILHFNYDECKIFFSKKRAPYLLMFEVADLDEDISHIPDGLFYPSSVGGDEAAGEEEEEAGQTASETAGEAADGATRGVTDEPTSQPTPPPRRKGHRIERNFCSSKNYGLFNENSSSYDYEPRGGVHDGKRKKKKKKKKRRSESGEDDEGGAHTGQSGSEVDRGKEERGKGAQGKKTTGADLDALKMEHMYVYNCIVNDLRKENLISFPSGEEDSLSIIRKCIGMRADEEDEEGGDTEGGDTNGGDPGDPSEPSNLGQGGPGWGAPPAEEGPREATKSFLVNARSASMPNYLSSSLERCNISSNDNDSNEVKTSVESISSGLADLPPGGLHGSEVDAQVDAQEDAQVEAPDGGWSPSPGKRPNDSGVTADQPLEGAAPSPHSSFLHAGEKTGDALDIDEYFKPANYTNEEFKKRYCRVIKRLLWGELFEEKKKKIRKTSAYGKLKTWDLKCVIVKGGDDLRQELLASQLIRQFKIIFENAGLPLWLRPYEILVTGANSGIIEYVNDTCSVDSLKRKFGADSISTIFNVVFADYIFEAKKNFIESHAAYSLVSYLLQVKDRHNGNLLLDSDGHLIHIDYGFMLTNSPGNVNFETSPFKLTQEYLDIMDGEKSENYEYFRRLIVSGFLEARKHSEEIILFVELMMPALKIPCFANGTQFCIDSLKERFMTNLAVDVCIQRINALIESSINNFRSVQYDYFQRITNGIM
T1 sequence (O95819 whole entry): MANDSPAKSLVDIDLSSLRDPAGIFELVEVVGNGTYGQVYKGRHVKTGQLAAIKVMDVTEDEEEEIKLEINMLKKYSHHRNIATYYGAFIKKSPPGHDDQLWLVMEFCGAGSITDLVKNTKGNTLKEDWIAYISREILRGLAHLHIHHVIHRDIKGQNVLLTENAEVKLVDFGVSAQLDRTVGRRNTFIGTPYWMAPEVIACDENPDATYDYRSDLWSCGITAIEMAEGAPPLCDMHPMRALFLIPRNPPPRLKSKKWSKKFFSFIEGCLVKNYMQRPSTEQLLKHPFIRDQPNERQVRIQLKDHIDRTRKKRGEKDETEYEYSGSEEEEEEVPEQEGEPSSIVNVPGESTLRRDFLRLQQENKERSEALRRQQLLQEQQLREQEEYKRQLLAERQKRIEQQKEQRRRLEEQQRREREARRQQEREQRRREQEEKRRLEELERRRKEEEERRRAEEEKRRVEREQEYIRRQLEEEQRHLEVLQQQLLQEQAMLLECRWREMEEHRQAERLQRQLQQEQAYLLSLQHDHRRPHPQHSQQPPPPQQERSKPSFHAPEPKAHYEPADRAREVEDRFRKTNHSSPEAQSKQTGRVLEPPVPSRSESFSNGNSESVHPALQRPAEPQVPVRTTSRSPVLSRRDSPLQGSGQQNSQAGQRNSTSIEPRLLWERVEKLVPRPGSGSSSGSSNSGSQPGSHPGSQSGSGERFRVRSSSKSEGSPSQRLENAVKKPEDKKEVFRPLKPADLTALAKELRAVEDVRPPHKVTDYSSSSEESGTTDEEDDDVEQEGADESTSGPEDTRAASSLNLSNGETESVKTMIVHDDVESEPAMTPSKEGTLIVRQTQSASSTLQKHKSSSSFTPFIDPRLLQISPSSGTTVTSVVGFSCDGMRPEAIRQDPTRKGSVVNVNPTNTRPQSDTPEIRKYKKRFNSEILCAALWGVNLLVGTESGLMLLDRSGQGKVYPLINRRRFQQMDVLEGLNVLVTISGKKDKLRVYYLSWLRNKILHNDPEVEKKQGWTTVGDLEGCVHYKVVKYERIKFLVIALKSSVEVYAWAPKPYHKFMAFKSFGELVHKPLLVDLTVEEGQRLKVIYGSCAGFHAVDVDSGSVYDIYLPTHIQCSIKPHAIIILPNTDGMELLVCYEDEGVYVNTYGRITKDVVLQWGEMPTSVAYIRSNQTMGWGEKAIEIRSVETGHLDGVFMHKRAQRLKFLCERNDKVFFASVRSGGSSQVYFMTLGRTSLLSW

## CCN(CC)CCCC(C)Nc1ccnc2cc(Cl)ccc12 (stereo not shown) [chloroquine]
P. berghei
  reduction in parasitaemia: 99.9%

## C[C@H]1[C@H](OC(=O)CCC(=O)O)O[C@@H]2O[C@@]3(C)CC[C@H]4[C@H](C)CC[C@@H]1[C@@]24OO3 [artesunate]
P. berghei
  reduction in parasitaemia: 99%

## Nc1ncc(-c2ccc(C(=O)N3CCNCC3)cc2)nc1-c1ccc(C(F)(F)F)cc1 [UCT943]
PvPI4Kβ
  pIC50: > 8.30
Pf3D7 strain
  logPRR: 2.5

## CC(C)n1nc(-c2ccc3oc(N)nc3c2)c2c(N)ncnc21 [sapanisertib]
PvPI4Kβ
  pIC50: > 8.30

## CN[C@@H]1C[C@H]2O[C@@](C)([C@@H]1OC)n1c3ccccc3c3c4c(c5c6ccccc6n2c5c31)C(=O)NC4 [staurosporine]
HsMAP4K4
  inhibition HsMAP4K4: nanomolar inhibition
HsMINK1
  inhibition HsMINK1: nanomolar inhibition
